In patent publication US9717243B2, “Piperidinecarboxylic acid derivatives as fungicides” (priority 2013, dated 2017):

Assay: LogP by HPLC on reversed phase columns (EEC directive 79/831 Annex V.A8)
Format: physicochemical
Conditions: not given
Method: Calibration was done with straight-chain alkan2-ones (with 3 to 16 carbon atoms) with known LogP values (measurement of LogP values using retention times with linear interpolation between successive alkanones). Lambda-max-values were determined using UV-spectra from 200 nm to 400 nm and the peak values of the chromatographic signals.

| Log P[a] | Structure (SMILES) |
| --- | --- |
| 3.37 | CC(C)(C)OC(=O)C1(C#N)CCN(C(=O)Cc2ccc(Cl)cc2)CC1 [IV-24] |
| 2.32 | COCCOC(=O)C1(C#N)CCN(C(=O)Cn2nc(C(F)F)cc2C(F)F)CC1 [IV-2] |
| 2.16 | CC(C)=CCNC(=O)C1(C#N)CCN(C(=O)Nc2ccc(F)cc2)CC1 [IV-44] |
| 2.26 | N#CC1(C(=O)OC2CCOC2)CCN(C(=O)Cn2nc(C(F)F)cc2C(F)F)CC1 (stereo not drawn) [IV-1] |
| 1.40 | COC(=O)C1(C#N)CCN(C(=O)Nc2cn(C)nc2C(F)F)CC1 [IV-34] |
| 4.01 | CC(C)(C)OC(=O)C1(C#N)CCN(C(=S)Nc2ccc(OC(F)(F)F)cc2)CC1 [IV-27] |
| 1.29 | N#Cc1cccc(NC(=O)N2CCC(C#N)(C(=O)O)CC2)c1 [IV-31] |
| 2.78 | CSCCOC(=O)C1(C#N)CCN(C(=O)Cn2nc(C(F)F)cc2C(F)F)CC1 [IV-3] |
| 2.26 | COC(=O)C1(C#N)CCN(C(=O)Nc2cc(C)ccc2C)CC1 [IV-19] |
| 1.89 | COC(=O)C1(C#N)CCN(C(=O)Cn2nc(C(F)F)cc2C)CC1 [IV-9] |
| 2.82 | CC(C)(C)OC(=O)C1(C#N)CCN(C(=O)Nc2ccccc2)CC1 [IV-20] |
| 2.68 | CC(C)=CCNC(=O)C1(C#N)CCN(C(=O)Nc2ccc(Cl)cc2)CC1 [IV-43] |
| 1.16 | N#CC1(C(=O)O)CCN(C(=O)Nc2ccccc2)CC1 [IV-21] |
| 3.23 | N#CC1(C(=O)OCc2ccccc2)CCN(C(=O)Cn2nc(C(F)F)cc2C(F)F)CC1 [IV-6] |
| 1.28 | CCC(C)NC(=O)C1(C#N)CCN(C(=O)Nc2cccc(C#N)c2)CC1 (stereo not drawn) [IV-36] |
| 1.44 | N#CC1(C(=O)O)CCN(C(=O)Cn2nc(C(F)F)cc2C(F)F)CC1 [IV-12] |
| 2.32 | COC(=O)C1(C#N)CCN(C(=O)Cn2nc(C(F)(F)F)cc2C)CC1 [IV-7] |
| 1.10 | Cc1cc(C(F)F)nn1CC(=O)N1CCC(C#N)(C(=O)O)CC1 [IV-8] |
| 2.96 | CC(C)(C)OC(=O)C1(C#N)CCN(C(=O)Nc2ccc(F)cc2)CC1 [IV-22] |
| 2.61 | CC(C)=CCN(C)C(=O)C1(C#N)CCN(C(=O)Nc2ccccc2)CC1 [IV-41] |
| 4.06 | CC(C)(C)OC(=O)C1(C#N)CCN(C(=O)Nc2ccc(Cl)c(C(F)(F)F)c2)CC1 [IV-28] |

Second part, the compound before the results:

| Structure (SMILES) | Log P[a] |
| --- | --- |
| CSCCOC(=O)C1(c2nc(C3=NOC(c4c(Cl)cccc4OS(C)(=O)=O)C3)cs2)CCN(C(=O)Cn2nc(C(F)F)cc2C(F)F)CC1 (stereo not drawn) [Example I-47] | 3.85 |
| C#CCOc1ccccc1C1CC(c2csc(C3(C(=O)OCC=C)CCN(C(=O)Cn4nc(C(F)F)cc4C(F)F)CC3)n2)=NO1 (stereo not drawn) [Example I-45] | 3.96 |
| COC(=O)C1(c2nc(C3=NOC(c4c(F)cccc4F)C3)cs2)CCN(C(=O)Cn2nc(C(F)(F)F)cc2C)CC1 (stereo not drawn) [Example I-69] | 3.55 |
| C#CCOc1ccc(F)c(F)c1C1CC(c2csc(C3(C(=O)OCC=C)CCN(C(=O)Cn4nc(C(F)F)cc4C(F)F)CC3)n2)=NO1 (stereo not drawn) [Example I-46] | 3.94 |
| COC(=O)C1(c2nc(C3=NOC(c4c(Cl)cccc4OS(C)(=O)=O)C3)cs2)CCN(C(=O)Nc2cn(C(F)F)nc2C)CC1 (stereo not drawn) [Example I-13] | 2.86 |
| CC(C)OC(=O)C1(C(N)=S)CCN(C(=O)Cn2nc(C(F)F)cc2C(F)F)CC1 [II-9] | 2.52 |
| COC(=O)C1(c2nc(C3=NOC(c4c(Cl)cccc4OS(C)(=O)=O)C3)cs2)CCN(C(=O)Cn2nc(C)cc2C(F)F)CC1 (stereo not drawn) [Example I-74] | 3.15 |
| COCCOC(=O)C1(c2nc(C3=NOC(c4c(Cl)cccc4OS(C)(=O)=O)C3)cs2)CCN(C(=O)Cn2nc(C(F)F)cc2C(F)F)CC1 (stereo not drawn) [Example I-77] | 3.48 |
| COC(=O)C1(c2nc(C3=NOC(c4ccccc4OS(C)(=O)=O)C3)cs2)CCN(C(=O)Cn2nc(C(F)(F)F)cc2C)CC1 (stereo not drawn) [Example I-71] | 3.33 |
| C#CCOc1ccc(F)c(F)c1C1CC(c2csc(C3(C(=O)OCC)CCN(C(=O)Cn4nc(C(F)F)cc4C(F)F)CC3)n2)=NO1 (stereo not drawn) [Example I-28] | 3.85 |
| COC(=O)C1(c2nc(C3=NOC(c4c(Cl)cccc4OS(C)(=O)=O)C3)cs2)CCN(C(=O)Nc2cn(C)nc2C(F)F)CC1 (stereo not drawn) [Example I-14] | 2.73 |
| CCOC(=O)C1(c2nc(C3=NOC(c4c(Cl)cccc4OS(C)(=O)=O)C3)cs2)CCN(C(=O)Cn2nc(C(F)F)cc2C(F)F)CC1 (stereo not drawn) [Example I-22] | 3.71 |
| C#CCOc1ccc(F)c(F)c1C1CC(c2csc(C3(C(=O)OC)CCN(C(=O)Nc4cc(C(F)F)nn4C)CC3)n2)=NO1 (stereo not drawn) [Example I-16] | 3.00 |
| C#CCOc1ccc(F)c(F)c1C1CC(c2csc(C3(C(=O)OCc4ccccc4)CCN(C(=O)Cn4nc(C(F)F)cc4C(F)F)CC3)n2)=NO1 (stereo not drawn) [Example I-40] | 4.31 |
| C#CCOc1ccccc1C1CC(c2csc(C3(C(=O)OC)CCN(C(=O)Nc4cn(C(F)F)nc4C)CC3)n2)=NO1 (stereo not drawn) [Example I-17] | 3.02 |
| COC(=O)C1(c2nc(C3=NOC(c4ccccc4OS(C)(=O)=O)C3)cs2)CCN(C(=O)Nc2cn(C)nc2C(F)F)CC1 (stereo not drawn) [Example I-19] | 2.53 |
| CC(C)OC(=O)C1(c2nc(C3=NOC(c4c(Cl)cccc4OS(C)(=O)=O)C3)cs2)CCN(C(=O)Cn2nc(C(F)F)cc2C(F)F)CC1 (stereo not drawn) [Example I-29] | 3.96 |
| C#CCOc1ccc(F)c(F)c1C1CC(c2csc(C3(C(=O)OCCSC)CCN(C(=O)Cn4nc(C(F)F)cc4C(F)F)CC3)n2)=NO1 (stereo not drawn) [Example I-52] | 3.99 |

| Structure (SMILES) | Log P[a] |
| --- | --- |
| O=C(Cn1nc(C(F)F)cc1C(F)F)N1CCC(C(=O)OCc2ccccc2)(c2nc(C3=NOC(c4ccccc4)C3)cs2)CC1 (stereo not drawn) [Example I-38] | 4.26 |
| COC(=O)C1(c2nc(C3=NOC(c4ccccc4OS(C)(=O)=O)C3)cs2)CCN(C(=O)Cn2nc(C(F)F)cc2C)CC1 (stereo not drawn) [Example I-64] | 2.96 |
| CC(C)OC(=O)C1(c2nc(C3=NOC(c4ccccc4)C3)cs2)CCN(C(=O)Cn2nc(C(F)F)cc2C(F)F)CC1 (stereo not drawn) [Example I-32] | 4.04 |
| CCOC(=O)C1(c2nc(C3=NOC(c4ccccc4OS(C)(=O)=O)C3)cs2)CCN(C(=O)Cn2nc(C(F)F)cc2C(F)F)CC1 (stereo not drawn) [Example I-26] | 3.51 |
| CCOC(=O)C1(c2nc(C3=NOC(c4c(F)cccc4F)C3)cs2)CCN(C(=O)Cn2nc(C(F)F)cc2C(F)F)CC1 (stereo not drawn) [Example I-24] | 3.73 |
| C#CCOc1ccc(F)c(F)c1C1CC(c2csc(C3(C(=O)OC)CCN(C(=O)Cn4nc(C(F)(F)F)cc4C)CC3)n2)=NO1 (stereo not drawn) [Example I-73] | 3.71 |
| C#CCOc1ccccc1C1CC(c2csc(C3(C(=O)OC)CCN(C(=O)Nc4cn(C)nc4C(F)F)CC3)n2)=NO1 (stereo not drawn) [Example I-20] | 2.88 |
| C#CCOc1ccccc1C1CC(c2csc(C3(C(=O)OC)CCN(C(=O)Nc4cc(C(F)(F)F)nn4C)CC3)n2)=NO1 (stereo not drawn) [Example I-80] | 3.35 |
| C#CCOc1ccccc1C1CC(c2csc(C3(C(=O)OC(C)C)CCN(C(=O)Cn4nc(C(F)F)cc4C(F)F)CC3)n2)=NO1 (stereo not drawn) [Example I-33] | 4.14 |
| CS(=O)(=O)Oc1ccccc1C1CC(c2csc(C3(C(=O)OC4CCOC4)CCN(C(=O)Cn4nc(C(F)F)cc4C(F)F)CC3)n2)=NO1 (stereo not drawn) [Example I-57] | 3.21 |
| CS(=O)(=O)Oc1cccc(Cl)c1C1CC(c2csc(C3(C(=O)OCc4ccccc4)CCN(C(=O)Cn4nc(C(F)F)cc4C(F)F)CC3)n2)=NO1 (stereo not drawn) [Example I-35] | 4.19 |
| COC(=O)C1(C(N)=S)CCN(C(=O)Nc2cn(C)nc2C(F)F)CC1 [II-16] | 1.22 |
| C#CCOc1ccc(F)c(F)c1C1CC(c2csc(C3(C(=O)OC)CCN(C(=O)Nc4cn(C)nc4C(F)F)CC3)n2)=NO1 (stereo not drawn) [Example I-21] | 2.88 |
| O=C(Cn1nc(C(F)F)cc1C(F)F)N1CCC(C(=O)OCc2ccccc2)(c2nc(C3=NOC(c4c(F)cccc4F)C3)cs2)CC1 (stereo not drawn) [Example I-37] | 4.21 |
| COC(=O)C1(c2nc(C3=NOC(c4c(F)cccc4F)C3)cs2)CCN(C(=O)Cn2nc(C(F)F)cc2C(F)F)CC1 (stereo not drawn) [Example I-1] | 3.44 |
| CC(C)OC(=O)C1(c2nc(C3=NOC(c4c(F)cccc4F)C3)cs2)CCN(C(=O)Cn2nc(C(F)F)cc2C(F)F)CC1 (stereo not drawn) [Example I-31] | 3.99 |
| C#CCOc1ccccc1C1CC(c2csc(C3(C(=O)OC4CCOC4)CCN(C(=O)Cn4nc(C(F)F)cc4C(F)F)CC3)n2)=NO1 (stereo not drawn) [Example I-58] | 3.55 |
| COC(=O)C1(c2nc(C3=NOC(c4c(F)cccc4F)C3)cs2)CCN(C(=O)Cn2nc(C(F)F)cc2C)CC1 (stereo not drawn) [Example I-62] | 3.17 |

Same assay, conditions: Table 1, compounds of formula (I); LC-UV, acidic range, 0.1% formic acid in water and acetonitrile as eluent

| Structure (SMILES) | Log P[a] |
| --- | --- |
| COC(=O)C1(c2nc(C3=NOC(c4ccccc4-c4ccccc4)C3)cs2)CCN(C(=O)Cn2nc(C(F)(F)F)cc2C)CC1 (stereo not drawn) [Example I-68] | 4.49 |
| CC(C)OC(=O)C1(c2nc(C3=NOC(c4ccccc4-c4ccccc4)C3)cs2)CCN(C(=O)Cn2nc(C(F)F)cc2C(F)F)CC1 (stereo not drawn) [Example I-30] | 4.92 |

Same assay, conditions: Table 1, compounds of formula (I); LC-UV, acidic range, 0.1% formic acid in water and acetonitrile as eluent; read-out: Log P[a]

| Structure (SMILES) | chromatographic logP |
| --- | --- |
| COC(=O)C1(c2nc(C3=NOC(c4c(Cl)cccc4OS(C)(=O)=O)C3)cs2)CCN(C(=O)Nc2cc(C(F)F)nn2C)CC1 (stereo not drawn) [Example I-12, methyl 4-[4-(5-{2-chloro-6-[(methylsulfonyl)oxy]phenyl}-4,5-dihydro-1,2-oxazol-3-yl)-1,3-thiazol-2-yl]-1-{[3-(difluoromethyl)-1-methyl-1H-pyrazol-5-yl]carbamoyl}piperidine-4-carboxylate] | 2.84 |

Same assay, conditions: Table 3, compounds of formula (VI); LC-UV, acidic range, 0.1% formic acid in water and acetonitrile as eluent; read-out: Log P[a]

| Structure (SMILES) | chromatographic logP |
| --- | --- |
| COC(=O)C1(C#N)CCN(C(=O)CCl)CC1 [VI-1, methyl 1-(chloroacetyl)-4-cyanopiperidine-4-carboxylate] | 1.27 |

Same assay, conditions: pH 2.7; synthesis intermediates in preparation examples; read-out: LogP (pH 2.7)

| Structure (SMILES) | chromatographic logP |
| --- | --- |
| CC(=O)C1=NOC(c2c(Cl)cccc2OS(C)(=O)=O)C1 (stereo not drawn) [2-(3-acetyl-4,5-dihydro-1,2-oxazol-5-yl)-3-chlorophenyl methanesulfonate] | 2.46 |
| Cn1nc(C(F)F)cc1NC(=O)Oc1ccccc1 [phenyl [3-(difluoromethyl)-1-methyl-1H-pyrazol-5-yl]carbamate] | 2.18 |
